Where no end group is shown, it is not given here. TAMRA = carboxytetramethylrhodamine label; Cy5 = cyanine 5 label
Experiments:
p47phox^SH3A−B = target: T1, p47phox^SH3A−B (Homo sapiens, UniProt P14598); experiment: Covalent binding assay (LC−MS); details: 15 min
T1 sequence (P14598 151-286): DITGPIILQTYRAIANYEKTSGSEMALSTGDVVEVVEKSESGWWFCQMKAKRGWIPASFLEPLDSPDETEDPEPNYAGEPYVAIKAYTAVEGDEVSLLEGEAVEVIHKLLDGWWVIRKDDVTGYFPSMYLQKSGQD
Experimental: LC−MS spectra were obtained using the same LC–MS system, solvents, and gradient as for the chemical stability assay, but here the LC–MS was installed with a Poroshell C18 reverse-phase column (Agilent, Poroshell, 300SB-C18, 2.1 × 75 mm). Injection volume was 10 µL and the protein eluted at 3.2 min.
Mass source parameters: Ion polarity, positive mode; drying gas flow, 12 L/min at 250 °C; nebulizer, 35 psig; VCap, 3000 V; Fragmentor, 70 V; mass scan range, 100–2000 m/z. Mass peak deconvolution was carried as described in literature (Winkler, 2010) (https://www.bioprocess.org/esiprot/esiprot_form.php). (A) LC–MS […]
corresponding to the theoretical MW of p47phox SH3A–B (17300.38 Da). (B) LC–MS data of 0.2 mg/mL […]
17300.3 Da and another (see red arrows) is a protein adduct with MW of 17421.9 ± 0.29 Da (ΔMW relative to […]
p47phoxSH3A–B is 122 Da).
MW of 17574.0 Da ± 0.23 Da (ΔMW relative to p47phoxSH3A–B is 274 Da corresponding to an ebselene-protein […]
with p47phoxSH3A–B. Similar to a phenolic Mannich base, the reaction involves an LMH001-derived quinone methide intermediate that reacts with nucleophiles from the protein leading to a +122 Da protein adduct.
(1 picture or pasted object on this page, not shown here)

[1] = system: p47phox/p22phox interaction; design: method as in Smith et al., 2012; details: ref Smith et al., 2012; cited from earlier work
[2] = target: T2, p47phox^SH3A−B (human His-tagged p47phox^151−286) (Homo sapiens, UniProt P14598); experiment: Fluorescence polarization (FP) competition assay; format: binding; details: for Ki: over 2–20 min
T2 construct: human His-tagged p47phox^151−286
T2 sequence (P14598 151-286): T1 sequence (P14598 151-286)
Experimental: Synthesized compounds were then tested for their ability to inhibit the interaction between p47phox^SH3A−B and the fluorescent peptide probes in 1×HBST (2% DMSO). The non-fluorescent p22phox^151−162 peptide (Sequence: Ac-[…]-NH2) was used as a control. […] FP values were fitted to the equation Y = Bottom + (Top-Bottom)/{1 + 10^[(LogIC50-X)*HillSlope]}, where X is the logarithmic value of the compound concentration. Hereby, the IC50 value was obtained, which together with the K d value, probe and p47phox^SH3A−B concentrations was used to calculate the theoretical competitive inhibition constant, the K i value. […] Here, 5 and 8 µM of p47phox^SH3A−B concentration was used for Cy5-p22phox^149−162 and TAMRA-p22phox^151−162, respectively.

[3] = Chemical stability assay (LC−MS); format: physicochemical
Experimental: A binary solvent system of buffer A (H2O/acetonitrile (MeCN)/formic acid, 95:5:0.1 v/v%) to buffer B (MeCN/formic acid, 99.9:0.1 v/v%) and a flow rate of 1 mL/min was used. Injection volume was 5 µL. Total sample run time was 6 min, and the percentage of buffer B increases from 0% to 100% during 0.25–4.25 min, maintains at 100% until 5 min, then decreases to 0% at 5.10 min, and stays at 0% until 6 min.

GST-p47phox^SH3A−B = system: GST-p47phox^SH3A−B; design: method as in Fan et al., 2022; details: GST-p47phox^SH3A−B / FITC-labelled p22phox^151-162 peptide, ref Fan et al., 2022, cited from earlier work
NOX2 [4] = system: NOX2; design: method as in Fan et al., 2022; details: COS-phox cells activated by PMA; ref Fan et al., 2022; read-out: IC50, NOX2 superoxide inhibition; cited from earlier work
[5] = design: method as in Fan et al., 2022; details: mice, iv injection; ref Fan et al., 2022; cited from earlier work
SH3A−B domain of p47phox = target: SH3A−B domain of p47phox; design: method as in Garsi et al., 2022; details: ref Garsi et al., 2022; read-out: Kd (SPR); cited from earlier work
NOX2 [6] = target: T3, NOX2 (Homo sapiens, UniProt P04839); experiment: NOX2 cell-based assay (WST1, PMA-activated PLB-985 cells); details: PMA-stimulated differentiated PLB-985 cells, superoxide (WST1)
T3 construct: endogenous in cells
T3 sequence (P04839 2-570 limits assumed): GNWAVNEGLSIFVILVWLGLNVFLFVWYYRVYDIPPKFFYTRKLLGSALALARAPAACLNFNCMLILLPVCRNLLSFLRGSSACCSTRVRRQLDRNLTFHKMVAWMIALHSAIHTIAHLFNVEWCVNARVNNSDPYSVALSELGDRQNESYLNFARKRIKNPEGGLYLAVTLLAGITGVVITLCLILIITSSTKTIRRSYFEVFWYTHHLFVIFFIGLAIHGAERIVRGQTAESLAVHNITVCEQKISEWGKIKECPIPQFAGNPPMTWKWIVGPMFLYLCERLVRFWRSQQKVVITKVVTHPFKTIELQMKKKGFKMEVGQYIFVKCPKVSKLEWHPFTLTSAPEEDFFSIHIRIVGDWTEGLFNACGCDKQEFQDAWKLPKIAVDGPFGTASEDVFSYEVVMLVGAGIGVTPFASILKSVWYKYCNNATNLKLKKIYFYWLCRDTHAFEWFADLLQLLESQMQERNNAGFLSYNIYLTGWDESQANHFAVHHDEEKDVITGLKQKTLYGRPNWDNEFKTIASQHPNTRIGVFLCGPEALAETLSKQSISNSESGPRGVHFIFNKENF
T3 sequence (P13498 2-195 partner limits assumed): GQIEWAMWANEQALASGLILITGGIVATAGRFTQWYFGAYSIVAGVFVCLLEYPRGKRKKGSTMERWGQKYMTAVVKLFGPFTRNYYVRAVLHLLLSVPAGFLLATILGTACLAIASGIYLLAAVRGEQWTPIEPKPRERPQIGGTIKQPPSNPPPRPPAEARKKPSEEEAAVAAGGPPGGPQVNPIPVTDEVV
Experimental: The assay measures extracellular superoxide generated by PMA-activated NOX2 in PLB-985 cells using the cell-impermeable tetrazolium salt WST1 as probe ([Tan and Berridge, 2000]). […] NOX2 was activated by addition of phorbol-12-myristate-13-acetate PMA (10 nM final). Absorbance (OD440) was measured with a Spectramax Paradigm reader (Molecular Devices) for 3 h. To graph the data, the rate of superoxide was calculated for the first hour.

[7] = target: T4, p47phox^SH3A-B (human His-tagged p47phox^151-286) (human, UniProt P14598 151-286); experiment: FP; 1×HBST
T4 chain: T1 sequence (P14598 151-286)

[8] = target: T4, p47phox^SH3A-B (human His-tagged …); experiment: FP; in water
[9] = tested as isolated compounds, 1×HBST, Cy5 or TAMRA probe, 2 or 20 min

Molecule: O=c1c2ccccc2[se]n1-c1ccccc1 [Ebselen]
- Protein mass increase (ΔMW relative to p47phox^SH3A–B) (p47phox^SH3A−B; 200 µM compound, 0.2 mg/mL p47phox^SH3A−B, HBST): 274 Da
- Conversion of p47phox^SH3A−B to molecular adduct (p47phox^SH3A−B; 200 µM, HBST): fully converted
- IC50 [1]: 0.3 µM

Molecule: O=C(OCc1cccc(O)c1O)c1ccc(O)c(CO)c1 [LMH001]
- Activity in the FP assay ([2]; up to 400 µM, 1×HBST, Cy5 or TAMRA probe, 2 or 20 min incubation): did not show any activity
- Activity in the FP assay in pure water ([2]; water instead of 1×HBST, Cy5 or TAMRA probe, 2 or 20 min): did not result in any measurable activity
- Degradation in the HBST buffer as function of pH ([3]; 1×HBST pH 6 to 8, 30 min): increased with pH
- LMH001 remaining ([3]; H2O, 5 min): 86%
- LMH001 remaining ([3]; H2O, 30 min): 76%
- LMH001 remaining ([3]; HBST, 5 min, 100 µM, relative to MeCN 5 min): 13%
- LMH001 remaining ([3]; HBST, 30 min): 3%
- p47phox^SH3A−B modified (p47phox^SH3A−B; 200 µM (17-fold molar excess), HBST): 20%–30%
- Conversion of p47phox^SH3A−B to adduct (p47phox^SH3A−B; 200 µM, water): negligible conversion
- IC50 (GST-p47phox^SH3A−B): 0.149 µM
- Ki (GST-p47phox^SH3A−B; read-out: Ki (FP)): 0.054 µM
- half-life [5]: 2.52 min

Molecule: N=C(N)NCCC[C@@H](CCCCC1CC1)NC(=O)[C@@H]1CCCN1C(=O)[C@@H]1CCCN1C(=O)[C@@H]1CCCN1C(=O)CCC(=O)Nc1cccc(-c2ccc(Cl)c(Cl)c2)c1 [compound 2]
- Kd (SH3A−B domain of p47phox): 0.043 µM

Molecule: OCc1cccc(O)c1O [compound 15]
- Activity in the FP assay [2, 9]: inactive
- IC50 (NOX2 [6]; read-out: IC50, NOX2 inhibition): 63 µM

Molecule: O=C(O)c1ccc(O)c(CO)c1 [compound 13]
- Activity in the FP assay [2, 9]: inactive
- IC50, NOX2 inhibition (NOX2 [6]): no activity

Molecule: Ac-PPTNPPPRPPAE-NH2 [p22phox^151–162]
- Ki ([2]; 1×HBST, probe Cy5-p22phox^149–162): 14 to 22 µM
- Ki ([2]; 1×HBST, probe TAMRA-p22phox^151–162): 17 to 31 µM
- Ki ([2]; water, probe Cy5-p22phox^149–162): 170 to 220 µM
- Ki ([2]; water, probe TAMRA-p22phox^151–162): 140 to 155 µM

Molecule: {TAMRA}-PPTNPPPRPPAE [carboxytetramethylrhodamine (TAMRA)-p22phox^151-162]
- Kd [7]: 7 µM
- Kd [8]: 40 µM

Molecule: Cy5-KQPPTNPPPRPPAE [cyanine 5 (Cy5)-p22phox^149-162]
- Kd [7]: 1.9 µM
- Kd [8]: 12 µM
